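Five concentrations, 48 hours, 96-well plates. At the TGI there is no net growth.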 Activity calls are given as the source filed them. Rule as the data show it: active = GI50 below about 0.43 µM; inactive = the rest.
Legend:
Test in all cases: NCI anticancer screen, dose series, 48 h
[1] = tested on: LOX IMVI melanoma
[2] = tested on: HCC-2998 colon
[3] = tested on: HCT-116 colon
[4] = tested on: SF-268 CNS
[5] = tested on: UO-31 renal
[6] = tested on: SW-620 colon
[7] = tested on: SK-MEL-28 melanoma
[8] = tested on: T-47D breast
[9] = tested on: OVCAR-5 ovarian
[10] = tested on: MCF7 breast
[11] = tested on: MOLT-4 leukemia
[12] = tested on: COLO 205 colon
[13] = tested on: K-562 leukemia
[14] = tested on: UACC-257 melanoma
[15] = tested on: NCI/ADR-RES ovarian
[16] = tested on: A498 renal
[17] = tested on: DU-145 prostate
[18] = tested on: BT-549 breast
[19] = tested on: SF-295 CNS
[20] = tested on: SK-OV-3 ovarian
[21] = tested on: UACC-62 melanoma
[22] = tested on: SNB-75 CNS
[23] = tested on: NCI-H23 lung
[24] = tested on: SNB-19 CNS
[25] = tested on: NCI-H226 lung
[26] = tested on: PC-3 prostate
[27] = tested on: MALME-3M melanoma
[28] = tested on: HL-60(TB) leukemia
[29] = tested on: NCI-H522 lung
[30] = tested on: U251 CNS
[31] = tested on: M14 melanoma
[32] = tested on: SK-MEL-2 melanoma
[33] = tested on: A549 NSCLC
[34] = tested on: OVCAR-8 ovarian
[35] = tested on: MDA-MB-435
[36] = tested on: SN12C renal
[37] = tested on: HT29 colon
[38] = tested on: SK-MEL-5 melanoma
[39] = tested on: ACHN renal
[40] = tested on: CCRF-CEM leukemia
[41] = tested on: MDA-N
[42] = tested on: 786-0 renal
[43] = tested on: MDA-MB-231 breast
[44] = tested on: SF-539 CNS
[45] = tested on: HS 578T breast
[46] = tested on: HCT-15 colon
[47] = tested on: NCI-H460 lung
[48] = tested on: EKVX NSCLC
[49] = tested on: RPMI-8226 leukemia
[50] = tested on: SR leukemia
[51] = tested on: CAKI-1 renal
[52] = tested on: HOP-92 NSCLC
[53] = tested on: KM12 colon
[54] = tested on: OVCAR-4 ovarian
[55] = tested on: RXF 393 renal
[56] = tested on: HOP-62 NSCLC
[57] = tested on: OVCAR-3 ovarian
[58] = tested on: TK-10 renal
[59] = tested on: IGROV1 ovarian

COc1ccc(N2C(=O)CC(=O)N(C(=O)CCCCCCCCC(=O)N3C(=O)CC(=O)N(c4ccc(OC)cc4)C3=S)C2=S)cc1
TGI [1]: > 100 µM | TGI [2]: > 100 µM | TGI [3]: > 100 µM | TGI [4]: > 100 µM | TGI [5]: > 100 µM | TGI [6]: > 100 µM | TGI [7]: > 100 µM | TGI [8]: > 100 µM | TGI [9]: > 100 µM | TGI [10]: > 100 µM | TGI [11]: > 100 µM | TGI [12]: > 100 µM | TGI [13]: > 100 µM | TGI [14]: > 100 µM | TGI [15]: > 100 µM | TGI [16]: > 100 µM | TGI [17]: > 100 µM | TGI [18]: > 100 µM | TGI [19]: > 100 µM | TGI [20]: > 100 µM | TGI [21]: > 100 µM | TGI [22]: > 100 µM | TGI [23]: > 100 µM | TGI [24]: > 100 µM | TGI [25]: > 100 µM | TGI [26]: > 100 µM | TGI [27]: > 100 µM | TGI [28]: > 100 µM | TGI [29]: > 100 µM | TGI [30]: > 100 µM | TGI [31]: > 100 µM | TGI [32]: > 100 µM | TGI [33]: > 100 µM | TGI [34]: > 100 µM | TGI [35]: > 100 µM | TGI [36]: > 100 µM | TGI [37]: > 100 µM | TGI [38]: > 100 µM | TGI [39]: > 100 µM | TGI [40]: > 100 µM | TGI [41]: > 100 µM | TGI [42]: > 100 µM | TGI [43]: > 100 µM | TGI [44]: > 100 µM | TGI [45]: > 100 µM | TGI [46]: > 100 µM | TGI [47]: > 100 µM | TGI [48]: > 100 µM | TGI [49]: > 100 µM | TGI [50]: > 100 µM | TGI [51]: > 100 µM | TGI [52]: > 100 µM | TGI [53]: > 100 µM | TGI [54]: > 100 µM | TGI [55]: > 100 µM | TGI [56]: > 100 µM | TGI [57]: > 100 µM | TGI [58]: > 100 µM

COc1cc(C2c3cc4c(cc3CC3COC(=O)N32)OCO4)cc(OC)c1OC (configuration not stated)
TGI [1]: > 100 µM | TGI [2]: 8.7 µM | TGI [3]: > 100 µM | TGI [4]: > 100 µM | TGI [5]: > 100 µM | TGI [6]: > 100 µM | TGI [7]: > 100 µM | TGI [8]: > 100 µM | TGI [9]: > 100 µM | TGI [10]: > 100 µM | TGI [11]: > 61.8 µM | TGI [59]: > 100 µM | TGI [12]: 4.89 µM | TGI [13]: > 100 µM | TGI [14]: > 100 µM | TGI [15]: 4.26 µM | TGI [16]: > 100 µM | TGI [17]: > 100 µM | TGI [18]: > 100 µM | TGI [19]: 5.35 µM | TGI [20]: > 100 µM | TGI [21]: > 100 µM | TGI [22]: > 100 µM | TGI [23]: > 31.6 µM | TGI [24]: > 100 µM | TGI [25]: > 92.5 µM | TGI [26]: > 100 µM | TGI [27]: > 100 µM | TGI [28]: 8.6 µM | TGI [29]: 5.66 µM | TGI [30]: > 31.6 µM | TGI [31]: > 100 µM | TGI [32]: > 100 µM | TGI [33]: > 100 µM | TGI [34]: > 100 µM | TGI [35]: 1.44 µM | TGI [36]: > 48.1 µM | TGI [37]: 5.14 µM | TGI [38]: 35.6 µM | TGI [39]: > 100 µM | TGI [40]: > 36.4 µM | TGI [41]: 1.28 µM | TGI [42]: > 100 µM | TGI [43]: 30 µM | TGI [44]: 5.8 µM | TGI [45]: > 57.2 µM | TGI [46]: > 27.9 µM | TGI [47]: > 100 µM | TGI [48]: > 100 µM | TGI [49]: > 100 µM | TGI [50]: > 28.7 µM | TGI [51]: > 100 µM | TGI [52]: > 94.9 µM | TGI [53]: > 61.7 µM | TGI [54]: > 100 µM | TGI [55]: > 100 µM | TGI [56]: > 100 µM | TGI [57]: 5.05 µM | TGI [58]: > 100 µM

O=c1cc(-c2ccc(O)c(O)c2-c2c(O)cc3oc(-c4ccc(O)c(O)c4)cc(=O)c3c2O)oc2cc(O)cc(O)c12
outcome [1]: inactive | outcome [2]: inactive | outcome [3]: inactive | outcome [4]: inactive | outcome [5]: inactive | outcome [6]: inactive | outcome [7]: inactive | outcome [8]: inactive | outcome [9]: inactive | outcome [10]: inactive | outcome [59]: inactive | outcome [12]: inactive | outcome [13]: inactive | outcome [14]: inactive | outcome [15]: inactive | outcome [16]: inactive | outcome [17]: inactive | outcome [18]: inactive | outcome [19]: inactive | outcome [20]: inactive | outcome [21]: inactive | outcome [22]: inactive | outcome [23]: inactive | outcome [24]: inactive | outcome [25]: inactive | outcome [26]: inactive | outcome [27]: inactive | outcome [28]: inactive | outcome [29]: inactive | outcome [30]: inactive | outcome [31]: inactive | outcome [32]: inactive | outcome [33]: inactive | outcome [34]: inactive | outcome [35]: inactive | outcome [36]: inactive | outcome [37]: inactive | outcome [38]: inactive | outcome [39]: inactive | outcome [40]: inactive | outcome [41]: inactive | outcome [42]: inactive | outcome [43]: inactive | outcome [44]: inactive | outcome [45]: inactive | outcome [46]: inactive | outcome [48]: inactive | outcome [49]: inactive | outcome [50]: inactive | outcome [51]: inactive | outcome [52]: inactive | outcome [53]: inactive | outcome [54]: inactive | outcome [55]: inactive | outcome [56]: inactive | outcome [57]: inactive | outcome [58]: inactive

O=C(c1ccc(Cl)c(Cl)c1)N(Cc1cccnc1)C(=S)N(Cc1cccnc1)C(=O)c1ccc(Cl)c(Cl)c1
TGI [1]: > 100 µM | TGI [2]: 39.8 µM | TGI [3]: 63.4 µM | TGI [4]: > 100 µM | TGI [5]: 33.2 µM | TGI [6]: > 100 µM | TGI [7]: > 100 µM | TGI [8]: > 100 µM | TGI [9]: 71.7 µM | TGI [10]: > 100 µM | TGI [11]: > 100 µM | TGI [12]: 32.2 µM | TGI [13]: > 100 µM | TGI [14]: 91.5 µM | TGI [15]: > 100 µM | TGI [16]: 79.4 µM | TGI [17]: > 100 µM | TGI [18]: 65.8 µM | TGI [19]: 67.1 µM | TGI [20]: > 100 µM | TGI [21]: > 100 µM | TGI [22]: > 100 µM | TGI [23]: > 100 µM | TGI [24]: 88.4 µM | TGI [25]: > 100 µM | TGI [26]: 83.4 µM | TGI [27]: > 100 µM | TGI [28]: > 100 µM | TGI [29]: 41.9 µM | TGI [30]: > 100 µM | TGI [31]: 52.9 µM | TGI [32]: 95.7 µM | TGI [33]: > 100 µM | TGI [34]: 84.5 µM | TGI [35]: > 100 µM | TGI [36]: 52.2 µM | TGI [37]: 65.1 µM | TGI [38]: 75.7 µM | TGI [39]: 36.2 µM | TGI [40]: > 100 µM | TGI [41]: > 100 µM | TGI [42]: 54.2 µM | TGI [43]: 99.1 µM | TGI [44]: 45.5 µM | TGI [45]: > 100 µM | TGI [46]: 64.2 µM | TGI [47]: > 100 µM | TGI [48]: > 100 µM | TGI [49]: > 100 µM | TGI [50]: > 100 µM | TGI [51]: > 100 µM | TGI [52]: > 100 µM | TGI [53]: > 100 µM | TGI [54]: > 100 µM | TGI [55]: 79.6 µM | TGI [56]: 83.6 µM | TGI [57]: 78.3 µM | TGI [58]: 79.8 µM

Reference: PubChem BioAssay (NCI)
